Measured values published in ChEMBL document CHEMBL1121605, “Aporphines. 30. (-)-N(2-chloroethyl)-10,11-dihydroxynor-aporphine (chloroethylnorapomorphine), a novel irreversible dopamine receptor antagonist” (J Med Chem, 1980).

Assays:
Type in all cases: functional
Rattus norvegicus [1] = organism: Rattus norvegicus; experiment: % stimulation of cyclic AMP production in homogenates of rat corpus striatum pre-incubated with 0 uM of NCA and 50 uM of DA
Rattus norvegicus [2] = organism: Rattus norvegicus; experiment: % stimulation of cyclic AMP production in homogenates of rat corpus striatum preincubated with 30 uM of NCA and 0 uM of DA
Rattus norvegicus [3] = organism: Rattus norvegicus; experiment: % inhibition of cyclic AMP production in homogenates of rat corpus striatum pre-incubated with 0 uM of NCA and 0 uM of DA
Rattus norvegicus [4] = organism: Rattus norvegicus; experiment: % inhibition of cyclic AMP production in homogenates of rat corpus striatum pre-incubated with 30 uM of NCA and 0 uM of DA
Rattus norvegicus [5] = organism: Rattus norvegicus; experiment: % stimulation of cyclic AMP production in homogenates of rat corpus striatum pre-incubated with 10 uM of NCA and 0 uM of DA
Rattus norvegicus [6] = organism: Rattus norvegicus; experiment: % inhibition of cyclic AMP production in homogenates of rat corpus striatum pre-incubated with 0 uM of NCA and 50 uM of DA
Rattus norvegicus [7] = organism: Rattus norvegicus; experiment: % inhibition of cyclic AMP production in homogenates of rat corpus striatum pre-incubated with 30 uM of NCA and 50 uM of DA
Rattus norvegicus [8] = organism: Rattus norvegicus; experiment: % inhibition of cyclic AMP production in homogenates of rat corpus striatum pre-incubated with 10 uM of NCA and 0 uM of DA
Rattus norvegicus [9] = organism: Rattus norvegicus; experiment: % stimulation of cyclic AMP production in homogenates of rat corpus striatum pre-incubated with 75 uM of NCA and 0 uM of DA
Rattus norvegicus [10] = organism: Rattus norvegicus; experiment: % stimulation of cyclic AMP production in homogenates of rat corpus striatum pre-incubated with 0 uM of NCA and 0 uM of DA
Rattus norvegicus [11] = organism: Rattus norvegicus; experiment: % inhibition of cyclic AMP production in homogenates of rat corpus striatum pre-incubated with 75 uM of NCA and 0 uM of DA
Rattus norvegicus [12] = organism: Rattus norvegicus; experiment: % stimulation of cyclic AMP production in homogenates of rat corpus striatum pre-incubated with 30 uM of NCA and 50 uM of DA

## Oc1ccc2c(c1O)-c1cccc3c1[C@@H](C2)N(CCCl)CC3
Rattus norvegicus [1]
  Stimulation: 98%
Rattus norvegicus [2]
  Stimulation: 43.9%
Rattus norvegicus [3]
  inhibition: 0%
Rattus norvegicus [4]
  inhibition: 56%
Rattus norvegicus [5]
  Stimulation: 83.9%
Rattus norvegicus [6]
  inhibition: 2%
Rattus norvegicus [7]
  inhibition: 3%
Rattus norvegicus [8]
  inhibition: 16%
Rattus norvegicus [9]
  Stimulation: 8.1%
Rattus norvegicus [10]
  Stimulation: 100%
Rattus norvegicus [11]
  inhibition: 92%
Rattus norvegicus [12]
  Stimulation: 103%
